Experiments:
[1] = tested on: A2780 ovarian cancer cell line; assay: Cytotoxicity of Ru compounds on A2780 ovarian cancer cell line (cell count, Coulter counter); type: cell-based; settings: A2780 cells; 24 hours drug exposure, further 3 days growth, cells counted
Description: 1. Protocol for Testing Ru Compounds The compounds are tested on 24-well trays. Cells growing in a flask are harvested just before they become confluent, counted using a haemocytometer and diluted down with media to a concentration of 1×10^4 cells per ml. The cells are then seeded in the 24-well trays at a density of 1×10^4 cells per well (i.e. 1 ml of the diluted cell suspension is added to each well). The cells are then left to plate down and grow for 72 hours before adding the compounds of the invention. The Ru complexes are weighed out and made up to a concentration of 1 mg/ml with deionised water and 0.5% w/w DMSO. The appropriate volume of the Ru solution is added to 5 ml of media to make it up to a concentration of 100 μM for each drug. This 100 μM solution is then serially diluted to make up the 10 μM, 1 μM and 0.1 μM solutions. The media is removed from the cells and replaced with 1 ml of the media dosed with drug. Each concentration is done in duplicate. A set of control wells are left on each plate, containing media and 0.5% w/w DMSO without drug. The cells are left exposed to the drugs for 24 hours and then washed with phosphate buffered saline before fresh media is added. They are allowed to grow on for a further 3 days before being counted using a Coulter counter. Preparing Cells for Counting: Media is removed and 1 ml of PBS is added to the cells. 250 μl of trypsin is added and cells left in incubator for a few minutes to allow the monolayers to detach. Once trypsinised, 250 μl of media is added to each well to neutralise the trypsin. 200 μl of this suspension is added to 10 ml of NaCl for counting. Using the above protocol, a number of compounds of the invention were tested on A2780 ovarian cancer cell line. […]

guanosine and adenosine = assay: 1H NMR study of binding to DNA bases (guanosine/adenosine adduct formation); settings: 500 MHz 1H NMR; guanosine:adenosine:compound mole ratio 1.3:1:1 in 10% D2O/90% H2O
Source text: The ability of the compounds of the invention to bind to DNA bases was studied by nmr and the results are illustrated in the accompanying figures in which:
FIG. 1 is a 500 MHz ^1H NMR spectrum of a mixture of guanosine:adenosine:compound of Example 1 in the mole ratio 1.3:1:1, respectively, in 10% D2O/90% H2O.
In FIG. 2, the region from 5.1 to 5.4 ppm (right) corresponds to the central CH on the acac ligand. Peaks a and b correspond to the adenosine adducts, peak c to the guanosine adduct. In the region 7.9-8.6 ppm (left), peaks for the H2 and H8 protons of adenosine and H8 protons of guanosine appear. […] The atom labelling scheme for the nucleobase part (A and G) of the nucleosides is shown.

## Cc1ccc(C(C)C)cc1.O=C([CH-]C(=O)c1ccccc1)c1ccccc1.[Cl-].[Ru+2] [Example 3, [(η^6-p-cymene)RuCl(C6H5COCHCOC6H5—O,O)]]
[1]
  IC50: 11 µM

## CC(=O)C=C(C)[O][Ru][Cl].c1ccc(-c2ccccc2)cc1 [Example 5, [(η^6—C6H5C6H5RuCl(H3CCOCHCOCH3—O,O)]]
[1]
  IC50: 21 µM

## CC#N.CC(=O)C=C(C)[O][Ru+].Cc1ccc(C(C)C)cc1.F[B-](F)(F)F [Example 6, [(η^6-p-cymene)Ru(CH3CN)(H3CCOCHCOCH3—O,O)]BF4]
[1]
  IC50: 22 µM

## CC(C)(C)C(=O)[CH-]C(=O)C(C)(C)C.Cc1ccc(C(C)C)cc1.[Cl-].[Ru+2] [Example 4, [(η^6-p-cymene)RuCl((CH3)3CCOCHCOC(CH3)3—O,O)]]
[1]
  IC50: 14 µM

## Cc1ccc(C(C)C)cc1.O=C([CH-]C(=O)C(F)(F)F)C(F)(F)F.[Cl-].[Ru+2] [Example 2, [(η^6-p-cymene)RuCl(F3CCOCHCOCF3—O,O)]]
[1]
  IC50: > 100 µM

## CC(=O)C=C(C)[O][Ru][Cl].Cc1ccc(C(C)C)cc1 [Example 1, [(η^6-p-cymene)RuCl(H3CCOCHCOCH3-O,O)]]
[1]
  IC50: 19 µM
Guanosine and adenosine
  adduct formation with adenosine and guanosine (binding to DNA bases): both adenosine and guanosine form adducts
